# Measured values published in ChEMBL document CHEMBL4665624, “Synthesis of 5-(4-(1H-phenanthro[9,10-d]imidazol-2-yl)benzylidene)thiazolidine-2,4-dione as promising DNA and serum albumin-binding agents and evaluation of antitumor activity” (Eur J Med Chem, 2019).
# Activity calls are given as the source filed them. The calls are words filed in the database; no cut-off is given here.
# What was measured:
# NCI-H226 = assay: Antitumor activity against human NCI-H226 assessed as cell growth inhibition at 10 uM incubated for 48 hrs by sulforhodamine B assay; assay type: functional; conditions: read-out: GI
# HCC 2998 = assay: Cytotoxicity against human HCC2998 cells assessed as cell death at 10 uM incubated for 48 hrs by sulforhodamine B assay; assay type: functional, cell-based
# ACHN = assay: Antitumor activity against human ACHN cells assessed as cell growth inhibition at 10 uM incubated for 48 hrs by sulforhodamine B assay; assay type: functional; conditions: read-out: GI
# MDA-MB-231 = assay: Antitumor activity against human MDA-MB-231/ATCC cells assessed as cell growth inhibition at 10 uM incubated for 48 hrs by sulforhodamine B assay; assay type: functional; conditions: read-out: GI
# LOX IMVI = assay: Antitumor activity against human LOX IMVI cells assessed as cell growth inhibition at 10 uM incubated for 48 hrs by sulforhodamine B assay; assay type: functional; conditions: read-out: GI
# UO-31 = assay: Antitumor activity against human UO-31 cells assessed as cell growth inhibition at 10 uM incubated for 48 hrs by sulforhodamine B assay; assay type: functional; conditions: read-out: GI
# NCI-H522 = assay: Antitumor activity against human NCI-H522 cells assessed as cell growth inhibition at 10 uM incubated for 48 hrs by sulforhodamine B assay; assay type: functional; conditions: read-out: GI
# SF-268 = assay: Antitumor activity against human SF268 cells assessed as cell growth inhibition at 10 uM incubated for 48 hrs by sulforhodamine B assay; assay type: functional; conditions: read-out: GI
# Hs-578T = assay: Cytotoxicity against human HS 578T cells assessed as cell death at 10 uM incubated for 48 hrs by sulforhodamine B assay; assay type: functional, cell-based
# U-251 = assay: Antitumor activity against human U251 cells assessed as cell growth inhibition at 10 uM incubated for 48 hrs by sulforhodamine B assay; assay type: functional; conditions: read-out: GI
# NCI/ADR-RES = assay: Antitumor activity against human NCI/ADR-RES cells assessed as cell growth inhibition at 10 uM incubated for 48 hrs by sulforhodamine B assay; assay type: functional; conditions: read-out: GI
# SW-620 = assay: Antitumor activity against human SW620 cells assessed as cell growth inhibition at 10 uM incubated for 48 hrs by sulforhodamine B assay; conditions: SW-620, 48 h, read-out: GI
# HCT-116 = assay: Antitumor activity against human HCT116 cells assessed as cell growth inhibition at 10 uM incubated for 48 hrs by sulforhodamine B assay; assay type: functional; conditions: read-out: GI
# BT-549 = assay: Antitumor activity against human BT-549 cells assessed as cell growth inhibition at 10 uM incubated for 48 hrs by sulforhodamine B assay; assay type: functional; conditions: read-out: GI
# SNB-75 = assay: Antitumor activity against human SNB-75 cells assessed as cell growth inhibition at 10 uM incubated for 48 hrs by sulforhodamine B assay; assay type: functional; conditions: read-out: GI
# MOLT-4 = assay: Antitumor activity against human MOLT4 cells assessed as cell growth inhibition at 10 uM incubated for 48 hrs by sulforhodamine B assay; assay type: functional; conditions: read-out: GI
# SN12C = assay: Antitumor activity against human SN12C cells assessed as cell growth inhibition at 10 uM incubated for 48 hrs by sulforhodamine B assay; assay type: functional; conditions: read-out: GI
# HL-60(TB) = assay: Antitumor activity against human HL-60(TB) cells assessed as cell growth inhibition at 10 uM incubated for 48 hrs by sulforhodamine B assay; assay type: functional; conditions: read-out: GI
# KM12 = assay: Antitumor activity against human KM12 cells assessed as cell growth inhibition at 10 uM incubated for 48 hrs by sulforhodamine B assay; assay type: functional; conditions: read-out: GI
# CCRF-CEM = assay: Antitumor activity against human CCRF-CEM cells assessed as cell growth inhibition at 10 uM incubated for 48 hrs by sulforhodamine B assay; assay type: functional; conditions: read-out: GI
# PC-3 = assay: Antitumor activity against human PC-3 cells assessed as cell growth inhibition at 10 uM incubated for 48 hrs by sulforhodamine B assay; assay type: functional; conditions: read-out: GI
# OVCAR-4 = assay: Antitumor activity against human OVCAR-4 cells assessed as cell growth inhibition at 10 uM incubated for 48 hrs by sulforhodamine B assay; assay type: functional; conditions: read-out: GI
# IGROV-1 = assay: Antitumor activity against human IGROV1 cells assessed as cell growth inhibition at 10 uM incubated for 48 hrs by sulforhodamine B assay; assay type: functional; conditions: read-out: GI
# SR = assay: Antitumor activity against human SR cells assessed as cell growth inhibition at 10 uM incubated for 48 hrs by sulforhodamine B assay; assay type: functional; conditions: read-out: GI
# SF-295 = assay: Antitumor activity against human SF295 cells assessed as cell growth inhibition at 10 uM incubated for 48 hrs by sulforhodamine B assay; assay type: functional; conditions: read-out: GI
# Malme-3M = assay: Antitumor activity against human MALME-3M cells assessed as cell growth inhibition at 10 uM incubated for 48 hrs by sulforhodamine B assay; assay type: functional; conditions: read-out: GI
# A498 = assay: Cytotoxicity against human A498 cells assessed as cell death at 10 uM incubated for 48 hrs by sulforhodamine B assay; assay type: functional, cell-based
# HCT-15 = assay: Antitumor activity against human HCT15 cells assessed as cell growth inhibition at 10 uM incubated for 48 hrs by sulforhodamine B assay; assay type: functional; conditions: read-out: GI
# MCF7 = assay: Antitumor activity against human MCF7 cells assessed as cell growth inhibition at 10 uM incubated for 48 hrs by sulforhodamine B assay; assay type: functional; conditions: read-out: GI
# UACC-62 = assay: Antitumor activity against human UACC-62 cells assessed as cell growth inhibition at 10 uM incubated for 48 hrs by sulforhodamine B assay; assay type: functional; conditions: read-out: GI
# SK-OV-3 = assay: Antitumor activity against human SK-OV-3 cells assessed as cell growth inhibition at 10 uM incubated for 48 hrs by sulforhodamine B assay; assay type: functional; conditions: read-out: GI
# OVCAR-3 = assay: Antitumor activity against human OVCAR-3 cells assessed as cell growth inhibition at 10 uM incubated for 48 hrs by sulforhodamine B assay; assay type: functional; conditions: read-out: GI
# K562 = assay: Antitumor activity against human K562 cells assessed as cell growth inhibition at 10 uM incubated for 48 hrs by sulforhodamine B assay; assay type: functional; conditions: read-out: GI
# RPMI-8226 = assay: Antitumor activity against human RPMI8226 cells assessed as cell growth inhibition at 10 uM incubated for 48 hrs by sulforhodamine B assay; assay type: functional; conditions: read-out: GI
# SK-MEL-28 = assay: Antitumor activity against human SK-MEL-28 cells assessed as cell growth inhibition at 10 uM incubated for 48 hrs by sulforhodamine B assay; assay type: functional; conditions: read-out: GI
# NCI-H23 = assay: Antitumor activity against human NCI-H23 cells assessed as cell growth inhibition at 10 uM incubated for 48 hrs by sulforhodamine B assay; assay type: functional; conditions: read-out: GI
# HOP-92 = assay: Antitumor activity against human HOP92 cells assessed as cell growth inhibition at 10 uM incubated for 48 hrs by sulforhodamine B assay; assay type: functional; conditions: read-out: GI
smiles,measurement,setting,value
O=c1[nH]cc(F)c(=O)[nH]1 [FLUOROURACIL],inhibition of growth at 10 µM,NCI-H226,69.5%
same,Activity,HCC 2998,Active
same,inhibition of growth at 10 µM,ACHN,39.3%
same,inhibition of growth at 10 µM,MDA-MB-231,78.1%
same,inhibition of growth at 10 µM,LOX IMVI,30.4%
same,inhibition of growth at 10 µM,UO-31,41.3%
same,inhibition of growth at 10 µM,NCI-H522,58%
same,inhibition of growth at 10 µM,SF-268,59%
same,Activity,Hs-578T,Active
same,inhibition of growth at 10 µM,U-251,50.3%
same,inhibition of growth at 10 µM,NCI/ADR-RES,47.6%
same,inhibition of growth at 10 µM,SW-620,< 10%
same,inhibition of growth at 10 µM,HCT-116,17.8%
same,inhibition of growth at 10 µM,BT-549,37.8%
same,inhibition of growth at 10 µM,SNB-75,65.9%
same,inhibition of growth at 10 µM,MOLT-4,43.1%
same,inhibition of growth at 10 µM,SN12C,54%
same,inhibition of growth at 10 µM,HL-60(TB),47.9%
same,inhibition of growth at 10 µM,KM12,40.7%
same,inhibition of growth at 10 µM,CCRF-CEM,57.1%
same,inhibition of growth at 10 µM,PC-3,58.2%
same,inhibition of growth at 10 µM,OVCAR-4,59.4%
same,inhibition of growth at 10 µM,IGROV-1,51.2%
same,inhibition of growth at 10 µM,SR,24.8%
same,inhibition of growth at 10 µM,SF-295,69%
same,inhibition of growth at 10 µM,Malme-3M,58.2%
same,Activity,A498,Active
same,inhibition of growth at 10 µM,HCT-15,26.5%
same,inhibition of growth at 10 µM,MCF7,11.5%
same,inhibition of growth at 10 µM,UACC-62,39.7%
same,inhibition of growth at 10 µM,SK-OV-3,77.5%
same,inhibition of growth at 10 µM,OVCAR-3,47.4%
same,inhibition of growth at 10 µM,K562,42.3%
same,inhibition of growth at 10 µM,RPMI-8226,41.4%
same,inhibition of growth at 10 µM,SK-MEL-28,19.5%
same,inhibition of growth at 10 µM,NCI-H23,39%
same,inhibition of growth at 10 µM,HOP-92,50.6%
